Consider 89 compounds from a melting point compilation (Tetko et al.; mined from patent text by program, amines drawn as free bases though some values may be those of a salt).

In the case of `N#CN=c1ccccn1Cc1ccccc1`, the melting point is 139 to 140 °C.

The compound `CCc1c(Oc2cc(C)cc(C)c2)n(CC2CC=CC2)c(=O)[nH]c1=O` registered a melting point of 179 to 180 °C.

`O=C(Nc1ccccc1N1CCCCC1)c1ccncc1` returned a melting point of 111 to 113 °C.

`CNc1ccccc1C(C)=O` had a melting point of 34 to 35 °C.

As for `Cc1cccc(NC(=O)Nc2c(-c3ccccc3)c3cc(Cl)ccc3c(=O)n2C)c1`, the melting point was > 300 °C.

`CC(=O)Nc1ccc(S(=O)(=O)Nc2nnc(C(C)(C)C)s2)cc1` returned a melting point of 137 to 138 °C.

Consider `CCOC(=O)C(=CNn1cnnc1)C(=O)c1cc(F)c(F)cc1F`, for which the melting point fell in the range of 239 to 240 °C.

Compound `COC(=O)c1ccc(=O)n(CCNC(=O)c2ccccc2)c1` came in with a melting point of 190 to 191 °C.

As to `CS(=O)(=O)c1ccc(-c2nn(CC3CC3)c(=O)cc2-c2ccc(Cl)cc2)cc1`, the melting point was determined as 140 °C.

On to `C=Cc1ccc2c(c1)CC(NC(=O)OC(C)(C)C)CC2` (centres undefined), for which the melting point was 89 to 91 °C.

`C=CC(=O)Nc1ccc(-c2ccc(C(=O)N3CCN4CCC3CC4)o2)cc1` showed a melting point of 230 to 246 °C.

In the case of `Cc1oc2ccccc2c1C(=O)NCc1ccc2c(Br)c(OCc3nnn[nH]3)ccc2c1`, the melting point was 242 to 244 °C.

With `CCOC(=O)C(NC(=O)C(C)C)C(=O)Cc1ccc(Cl)cc1Cl` (centres undefined), the melting point was in the range of 139 to 140 °C.

Compound `O=Cc1cc(Br)c(Cl)cc1[N+](=O)[O-]` yielded a melting point of 81 to 82 °C.

As for `COc1cc(N2CCC(N3CCOCC3)CC2)ccc1Nc1ncc2ccc(-c3ccccc3S(C)(=O)=O)n2n1`, the melting point was 111 to 112 °C.

Turning to `CNc1nc(-c2cccc(NC(=O)Cc3ccccc3)c2)c2cc(OC)c(OC)cc2n1`, the melting point lay in the range of 175 to 177 °C.

Compound `CN(c1cccc2cc(-c3nccs3)[nH]c12)S(=O)(=O)c1ccsc1CSCC(=O)O` registered a melting point of 193 °C.

`CCOC(=O)c1ccc(-c2nc(-c3ccccc3)ccc2Cl)cc1` returned a melting point of 81 to 82 °C.

Compound `CSc1nc2ccccc2n1C1CCN(CCCC(=O)c2ccc(F)cc2)CC1` gave a melting point of 98 to 98.5 °C.

As for `CC(C)(C)c1ccc2c(c1)C=C(C(=O)O)C(C(F)(F)F)O2` (centres undefined), the melting point lay in the range of 171 to 173 °C.

Regarding `FC(F)(F)c1cccc(OCc2ccc3ccccc3n2)c1`, the melting point was in the range of 77 to 78 °C.

The compound `O=C(OCC(O)c1ccccc1)c1ccc(-c2ccc(OCCCCCCO)cc2)cc1` (centres undefined) yielded a melting point of 148 to 150 °C.

With `O=C(O)CCCc1cc2nc(Cl)ccc2n1S(=O)(=O)c1ccc(-c2cccnc2)cc1`, the melting point was 141 °C.

For `CCCCNc1c(C(=O)OCC)c(C)nc2nnsc12`, the melting point fell in the range of 57 to 58 °C.

As to `CCc1ccc(N(Cc2ccc(N3CCOCC3)cc2)C(=O)Nc2c(C(C)C)cccc2C(C)C)cc1`, the melting point was in the range of 159 to 161 °C.

`Cc1ccc(/C=C/c2nc(COc3ccc(CCCCn4ccnc4CCO)cc3)co2)cc1` displayed a melting point of 108 to 109 °C.

`CCCOc1ccc(S(=O)(=O)N2CCC(C(=O)OCC)CC2)cc1-c1nc2cc(N)c(N)cc2c(=O)[nH]1` yielded a melting point of 197 to 199 °C.

`CN1CCOC1=C(C#N)C=C1Nc2ccccc2C1=O` showed a melting point of 222 to 226 °C.

As to `N#CC(C#N)(CC=C(Br)Br)Cc1ccc(OC(F)(F)F)cc1`, the melting point amounted to 127 °C.

The compound `Cn1c2ccccc2c2cc(NC(=O)c3ccccc3Cl)ccc21` yielded a melting point of 206 °C.

Consider `CC1(C)CC2(CC(C)(C)c3ccc(Oc4ccc([N+](=O)[O-])cc4)cc32)c2cc(Oc3ccc([N+](=O)[O-])cc3)ccc21`, for which the melting point lay in the range of 200 to 202 °C.

The compound `CC(=O)N1N=C(c2ccc(N)cc2)c2cc(Cl)c(Cl)cc2CC1C` (centres undefined) registered a melting point of 242 to 243 °C.

In turn, `CCCCCCCCC#CCC#CCC#CCCCC(=O)Nc1ccc(O)cc1` returned a melting point of 121 °C.

`O=c1ccn(CCCO)c(CO)c1O`: the melting point was 138 to 139 °C.

`COC(=O)c1ccc(Cn2c(=O)c(C)c3sc(C(=O)NCc4cccc(F)c4)cn3c2=O)cc1`: the melting point was 209 to 211 °C.

In the case of `COc1ccc(CC(=O)NCCc2ccc3[nH]cc(CC#N)c3c2)cc1`, the melting point lay in the range of 155 to 156 °C.

`CC(C)=NOc1nc(C(F)(F)F)cc(=O)n1-c1cc(Oc2ccccc2[N+](=O)[O-])c(Cl)cc1F` came in with a melting point of 156 to 159 °C.

Take `COc1ccc2c(c1)CC=C(C=Cc1ccc(C#N)cc1)O2`: the melting point lay in the range of 224 to 226 °C.

`O=[N+]([O-])c1cc(Cl)c(Oc2cc(Cl)c(Br)cc2Cl)cc1NCc1ccccc1` gave a melting point of 157 °C.

`O=C(O)COc1cccc(CCCOC(c2ccccc2)c2ccccc2)c1` showed a melting point of 110 to 112 °C.

Compound `c1csc(-c2nc(COc3ccc(CCCn4ccnc4)cn3)co2)c1` returned a melting point of 86 to 87 °C.

For `CC(C)Cc1cc(OCc2ccccc2)c2c(c1)OC(C)(C)CC2C(=O)Oc1ccc([N+](=O)[O-])cc1` (centres undefined), the melting point fell in the range of 125 to 126 °C.

The compound `COc1ccc(Cc2nc3n(-c4c(Cl)cc(Cl)cc4Cl)[nH]c(C(C)C)c-3c(=O)n2)cc1` came in with a melting point of 183 to 185 °C.

The compound `CC(C)c1cccc(C(C)C)c1NC(=S)NC1CCCC(C(F)(F)F)C1` (centres undefined) displayed a melting point of 67 to 75 °C.

`CCOC(=O)COc1cc2c(c(Cl)c1Cl)C(=O)C(c1ccccc1)C2` (centres undefined) displayed a melting point of 114 to 115 °C.

`CCOC(=O)/C=C/c1cc(OCc2cn(-c3ccc(C(F)(F)F)cn3)nc2C)nn1C` came in with a melting point of 173 to 174 °C.

The compound `CCCCC[C@H]1CC[C@H](c2ccc(C(N)=O)cc2)CC1` returned a melting point of 234 to 235 °C.

In turn, `CN1C(=O)C2(CCN(CCCC(O)c3ccc(F)cc3)CC2)c2ccccc21` (centres undefined) had a melting point of 126 to 128 °C.

`CC(NC(=O)c1c(F)cccc1F)C(F)(F)F` (centres undefined) returned a melting point of 167 to 168 °C.

On to `COc1cc2c(cn1)CCCC2=NO`, for which the melting point lay within 175 to 178 °C.

For the compound `N#Cc1c(Cl)cccc1C(Cl)(Cl)Cl`, the melting point lay within 121 to 122 °C.

Consider `CCn1c(=O)c2c(nc(/C=C/c3ccc4c(c3)OCCO4)n2C)n(CC)c1=O`, for which the melting point lay within 233 to 234 °C.

As to `CC(C)(C)c1cc(-c2ccc(NC(=O)CCCC(=O)O)cc2)cc(C(C)(C)C)c1O`, the melting point is 218 to 219 °C.

Consider `COc1ccc2c(c1)c1c3c(c(-c4ccccc4)cc1n2CCCO)C(=O)NC3=O`, for which the melting point was in the range of 241 to 243 °C.

`N#Cc1cc(CO)nc(C(=O)Nc2cccc(Cl)c2)c1`: the melting point was 167 °C.

Turning to `NC(=NCC(F)(F)F)Nc1cncc(Cl)n1`, the melting point was 139 to 140 °C.

`COc1ccccc1C1CCNC(N)=N1` (centres undefined) displayed a melting point of 189 to 191 °C.

Compound `CCn1ncc2c1ncc1c(=O)[nH]c3cc(C)nn3c12` registered a melting point of 285 to 286 °C.

Compound `CCCCC#CCC#CCC#CCCCCCCC(=O)O` showed a melting point of 48.5 to 49.5 °C.

For `O=C(O)c1cccc(NC(=O)C(CSC(=O)c2ccccc2)Cc2ccccc2)c1` (centres undefined), the melting point is 182 to 184 °C.

`Cc1c(C)c2c(c(C)c1N)CC(C)(CN1CCN(CC(c3ccccc3)c3ccccc3)CC1)O2` (centres undefined) yielded a melting point of 130 to 132 °C.

For the compound `CC(C)Oc1ccc(S(=O)(=O)N2CCCC2=O)cc1`, the melting point fell in the range of 88 to 90 °C.

For the compound `CCCCCNC(=O)CCCO`, the melting point lay within 41 to 43 °C.

On to `Cc1nc2cnccc2n1-c1ccccc1`, for which the melting point lay within 134 to 136 °C.

On to `COc1cc(OC)nc(CC(=O)O)n1`, for which the melting point lay within 175 to 177 °C.

In the case of `Cc1c(Cl)cccc1S(=O)(=O)Nc1ccc2c(c1)nc(C)n2-c1ccccc1`, the melting point lay within 254 to 256 °C.

Turning to `Cn1ccc(-c2[nH]nc3c2C(=O)c2c(NC(N)=O)cccc2-3)c1`, the melting point was > 300 °C.

Regarding `Cc1cn(C(C)(C)C(=O)N(C)C)nc1-c1ccccc1`, the melting point was 107 to 109 °C.

For `CC(=NOCCO)c1ccc(-c2ccc(C)cc2)cc1`, the melting point was in the range of 142 to 144 °C.

Regarding `CN(C)Cc1ccccc1-c1ccc(Br)cc1`, the melting point was in the range of 60 to 62 °C.

Take `COc1ccc(N)c(CCc2cc(OC)ccc2N)c1`: the melting point fell in the range of 69 to 71 °C.

`COc1cc(Nc2nn(Cc3ccccc3)c(=O)c3ccccc23)cc(OC)c1OC` returned a melting point of 206 to 207 °C.

Regarding `CC1COP(=O)(Cc2ccc(N)cc2)OC1` (centres undefined), the melting point was 158 to 159 °C.

For `C/C(=C(\C#N)C(N)=S)N1CCCCC1`, the melting point fell in the range of 161 to 166 °C.

On to `CS(=O)(=O)Cc1cccc(C(F)(F)F)c1N`, for which the melting point was in the range of 96 to 98 °C.

`Cc1ccc(S(=O)(=O)N2C(=O)[C@H]3CC=C[C@H]32)cc1` registered a melting point of 93 to 95 °C.

For `FC(F)(F)Sc1ccc(/C=C/c2nc(COc3ccc(-c4nc(Cn5ccnc5)co4)cc3)co2)cc1`, the melting point lay in the range of 144 to 145 °C.

Regarding `CCc1cccc(CC)c1NC(=O)C1c2ccccc2COc2ccc(C(C)C)cc21` (centres undefined), the melting point is 170 °C.

Compound `O=C1CCC(N2Cc3c(OCc4cccc(CN5CCN(S(=O)(=O)C(F)(F)F)CC5)c4)cccc3C2=O)C(=O)N1` (centres undefined) came in with a melting point of 150 to 152 °C.

In turn, `CCn1c(C)nc2cc(S(C)(=O)=O)ccc21` had a melting point of 140 to 142 °C.

The compound `CCCCCCCCCCC(=O)Nc1ccn(C2OC(CO)C(O)C2O)c(=O)n1` (centres undefined) gave a melting point of 146 to 150 °C.

Take `CCC1Cc2ccc([N+](=O)[O-])cc2C=N1` (centres undefined): the melting point was 61 to 62 °C.

Compound `O=C(NCc1ccc2c(c1)OCO2)c1ccc2[nH]c(=O)n(Cc3ccc4c(c3)OCO4)c(=O)c2c1` registered a melting point of 245 °C.

Consider `CCNC(=C[N+](=O)[O-])NCCSCc1csc(CN(C)C)n1`, for which the melting point fell in the range of 89 to 90 °C.

Compound `c1ccc(C(CCCc2c[nH]cn2)c2ccccc2)cc1` registered a melting point of 204 to 206 °C.

The compound `CCOC(=O)C1=C(C)NC(C=O)=C(C(=O)OCC)C1c1ccco1` (centres undefined) returned a melting point of 78 to 79.5 °C.

In turn, `COC1(c2cccc(S(=O)(=O)c3ccc(N(C)C(C)=O)c(Cl)c3)c2)CCOCC1` came in with a melting point of 119 to 121 °C.

Regarding `CCCCCCCC(=O)c1c(C(=O)CCCCCCC)c(-c2ccccc2)n(-c2ccc(C)cc2)c1-c1ccccc1`, the melting point lay in the range of 51 to 53 °C.

In turn, `Cc1nnc2n1-c1ccccc1C(c1ccc(Cl)cc1)=NN2Cc1ccc(NS(C)(=O)=O)cc1` gave a melting point of 273 to 275 °C.

The term melting point denotes the temperature of the solid-liquid transition.
